Consider 13 compounds from ChEMBL document CHEMBL1201862, “PubChem BioAssay data set” (2004).

Among the targets are Cytochrome P450 3A4 (Homo sapiens, UniProt P08684); Cytochrome P450 2D6 (Homo sapiens, UniProt P10635); Cytochrome P450 2C9 (Homo sapiens, UniProt P11712).
The target of assay [1] is T1, Heat shock factor protein 1 (Mus musculus, UniProt P38532).
T1 sequence (P38532 whole entry): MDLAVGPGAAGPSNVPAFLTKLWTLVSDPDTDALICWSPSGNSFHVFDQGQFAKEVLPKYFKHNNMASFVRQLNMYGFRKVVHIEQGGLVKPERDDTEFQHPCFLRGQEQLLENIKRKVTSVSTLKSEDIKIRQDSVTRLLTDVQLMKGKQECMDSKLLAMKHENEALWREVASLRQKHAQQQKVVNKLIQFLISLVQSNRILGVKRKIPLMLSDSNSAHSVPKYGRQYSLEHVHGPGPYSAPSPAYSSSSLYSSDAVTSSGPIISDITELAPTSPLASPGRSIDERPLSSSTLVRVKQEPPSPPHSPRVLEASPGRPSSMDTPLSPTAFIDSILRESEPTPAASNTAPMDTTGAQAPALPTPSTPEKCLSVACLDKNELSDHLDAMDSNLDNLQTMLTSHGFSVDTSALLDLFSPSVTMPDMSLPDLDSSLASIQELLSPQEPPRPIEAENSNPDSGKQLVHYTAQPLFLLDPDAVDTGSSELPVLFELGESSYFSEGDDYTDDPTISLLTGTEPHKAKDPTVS
Briefly: enhancement of HSF1-driven luciferase signal – cell-based, NIH3T3, luminescence, dose retest, confirmation (AID 435004).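 Note: stress induced by proteasome inhibitor MG132 added 30 min after compound; luciferase reporter driven by HSF1 response element in NIH3T3 cells; actives raise luminescence as potentiators of the MG132 stress response.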 The class given is functional.

In assay [2] the target is T2, Corticotropin-releasing factor receptor 2/Corticotropin-releasing factor-binding protein (Homo sapiens, UniProt P24387+Q13324).
T2 sequence (Q13324 whole entry): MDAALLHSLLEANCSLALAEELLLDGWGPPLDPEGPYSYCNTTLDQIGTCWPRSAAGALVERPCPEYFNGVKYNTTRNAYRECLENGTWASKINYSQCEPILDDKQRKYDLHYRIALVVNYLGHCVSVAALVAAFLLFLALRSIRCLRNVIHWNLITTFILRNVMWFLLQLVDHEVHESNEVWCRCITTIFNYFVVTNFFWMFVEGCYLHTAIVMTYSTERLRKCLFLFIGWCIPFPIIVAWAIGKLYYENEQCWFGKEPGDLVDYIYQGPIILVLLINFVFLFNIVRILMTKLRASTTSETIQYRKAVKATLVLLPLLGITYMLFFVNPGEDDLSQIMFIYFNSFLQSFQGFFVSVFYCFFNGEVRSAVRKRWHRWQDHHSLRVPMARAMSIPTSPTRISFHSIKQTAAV
T2 sequence (P24387 whole entry): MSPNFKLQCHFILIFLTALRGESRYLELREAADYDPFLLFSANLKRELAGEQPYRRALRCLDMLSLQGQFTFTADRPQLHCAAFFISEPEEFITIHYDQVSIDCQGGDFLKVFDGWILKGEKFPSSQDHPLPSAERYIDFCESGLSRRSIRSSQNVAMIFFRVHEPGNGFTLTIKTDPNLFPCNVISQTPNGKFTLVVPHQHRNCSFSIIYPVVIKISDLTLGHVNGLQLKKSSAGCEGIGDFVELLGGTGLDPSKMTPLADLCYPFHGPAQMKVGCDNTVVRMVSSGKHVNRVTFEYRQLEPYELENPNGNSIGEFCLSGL
Briefly: activators of CRF receptor 2 with binding protein – uHTS hits, confirmation (AID 602473). The class given is functional. To be noted: read-out: EC50_Mean.

The nature of assay [3]: viability of PTEN-deleted HCT116 cells – cell-based, HCT116 PTEN knockout, dose response (AID 1047).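 Note: HCT116 colon tumor cells with PTEN knocked out; cells exposed to compound for 60 hours before readout; potency for loss of cell viability measured by luminescence.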 The class given is functional.
Assay [4] is described as follows: viability of HCT116 lacking mutant beta-catenin – cell-based, human colon tumor, dose response (AID 1045).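 Note: HCT116 colon tumor cells with beta catenin knocked out; cells exposed to compound for 60 hours.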 The class given is functional.
Assay [5] concerns the target T3, Replicative DNA helicase DnaB (Mycobacterium tuberculosis, UniProt P9WMR3).
T3 sequence (P9WMR3 whole entry): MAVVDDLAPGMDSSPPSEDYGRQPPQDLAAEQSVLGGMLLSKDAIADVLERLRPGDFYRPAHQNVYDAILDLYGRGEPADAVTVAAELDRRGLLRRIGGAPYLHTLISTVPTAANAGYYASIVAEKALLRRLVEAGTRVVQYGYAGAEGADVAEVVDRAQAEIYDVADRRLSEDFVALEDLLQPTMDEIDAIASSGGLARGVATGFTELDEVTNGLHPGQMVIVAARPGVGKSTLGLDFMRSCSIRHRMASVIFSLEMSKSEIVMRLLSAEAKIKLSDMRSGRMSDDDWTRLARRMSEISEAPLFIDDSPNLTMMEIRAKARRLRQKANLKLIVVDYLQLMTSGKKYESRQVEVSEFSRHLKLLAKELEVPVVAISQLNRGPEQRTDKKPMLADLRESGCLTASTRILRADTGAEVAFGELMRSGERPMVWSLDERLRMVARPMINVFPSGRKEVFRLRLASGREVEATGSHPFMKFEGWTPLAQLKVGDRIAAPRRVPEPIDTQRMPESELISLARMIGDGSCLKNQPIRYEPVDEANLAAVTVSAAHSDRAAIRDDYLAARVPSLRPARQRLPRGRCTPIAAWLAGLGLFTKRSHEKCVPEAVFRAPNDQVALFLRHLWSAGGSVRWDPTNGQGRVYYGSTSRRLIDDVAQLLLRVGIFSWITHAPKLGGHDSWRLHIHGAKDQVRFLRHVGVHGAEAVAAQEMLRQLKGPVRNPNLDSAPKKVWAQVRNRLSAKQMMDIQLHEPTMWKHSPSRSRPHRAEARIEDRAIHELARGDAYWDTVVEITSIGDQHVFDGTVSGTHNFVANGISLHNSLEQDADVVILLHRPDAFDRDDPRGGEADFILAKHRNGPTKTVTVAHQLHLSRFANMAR
Briefly: DnaB intein splicing inhibitors, dose response, biochemical, cell-free fluorescence (AID 449749). The class given is functional.

For another assay, the target named is T4, Protein RecA (Mycobacterium tuberculosis, UniProt P9WHJ3).
T4 sequence (P9WHJ3 whole entry): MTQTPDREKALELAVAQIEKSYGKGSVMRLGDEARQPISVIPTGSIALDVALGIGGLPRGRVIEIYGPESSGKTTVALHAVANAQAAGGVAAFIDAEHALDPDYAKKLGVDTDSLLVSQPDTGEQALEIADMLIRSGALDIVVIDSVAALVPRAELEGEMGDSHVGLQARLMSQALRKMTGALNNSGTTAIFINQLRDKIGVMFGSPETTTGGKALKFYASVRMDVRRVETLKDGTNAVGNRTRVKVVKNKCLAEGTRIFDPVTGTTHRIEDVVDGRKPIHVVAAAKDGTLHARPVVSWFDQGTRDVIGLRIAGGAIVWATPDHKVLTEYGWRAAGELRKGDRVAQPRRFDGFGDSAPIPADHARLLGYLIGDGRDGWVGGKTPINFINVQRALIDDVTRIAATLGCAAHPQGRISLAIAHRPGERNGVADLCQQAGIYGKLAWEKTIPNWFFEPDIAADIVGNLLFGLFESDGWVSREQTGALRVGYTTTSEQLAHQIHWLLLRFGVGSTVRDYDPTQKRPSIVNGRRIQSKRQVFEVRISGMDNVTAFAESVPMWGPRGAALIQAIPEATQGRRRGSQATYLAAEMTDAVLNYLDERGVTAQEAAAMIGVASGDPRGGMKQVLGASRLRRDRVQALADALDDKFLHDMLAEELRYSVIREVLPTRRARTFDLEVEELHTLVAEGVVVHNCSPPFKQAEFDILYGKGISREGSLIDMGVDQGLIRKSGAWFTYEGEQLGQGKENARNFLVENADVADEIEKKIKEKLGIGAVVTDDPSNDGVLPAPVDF
Briefly: Fluorescence Cell-Free Homogeneous Dose Retest to Identify Inhibitors of RecA-Intein Splicing Activity. [Related pubchem assays (depositor defined):AID2097, AID2223, AID489010, AID492950]. The class given is functional.

Another assay deals with Cytochrome P450 2C19 (Homo sapiens, UniProt P33261). Briefly: Cytochrome panel assay with activity outcomes. Panel member name: p450-cyp2c19 Compounds with AC50 equal or less than 10 uM are considered active. The class given is functional. To be noted: read-out: AC50.
Chain of Cytochrome P450 2C19 (P33261 whole entry): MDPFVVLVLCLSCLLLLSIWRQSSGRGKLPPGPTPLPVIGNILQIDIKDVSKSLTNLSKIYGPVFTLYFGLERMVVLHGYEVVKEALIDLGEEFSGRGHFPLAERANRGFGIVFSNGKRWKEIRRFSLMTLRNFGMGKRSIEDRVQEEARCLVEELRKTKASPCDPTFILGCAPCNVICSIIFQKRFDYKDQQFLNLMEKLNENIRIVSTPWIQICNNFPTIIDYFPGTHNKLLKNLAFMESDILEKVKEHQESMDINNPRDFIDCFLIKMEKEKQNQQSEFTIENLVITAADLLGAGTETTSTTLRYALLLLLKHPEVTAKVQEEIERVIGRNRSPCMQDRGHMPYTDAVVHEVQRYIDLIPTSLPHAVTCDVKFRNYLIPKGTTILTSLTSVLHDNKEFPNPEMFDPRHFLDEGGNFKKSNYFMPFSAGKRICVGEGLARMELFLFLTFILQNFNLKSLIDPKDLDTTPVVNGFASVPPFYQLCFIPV
The nature of assay [6]: NIH3T3 cell viability loss – ATP luminescence, mouse fibroblasts, counter-screen, dose response (AID 2010).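 Note: cells exposed to compound for about 90 hours before reading.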 The class given is functional, cell-based. (A counterscreen serves to expose hits that act by an unwanted route or on another target.)
Assay [7] is described as follows: Trypanosoma cruzi growth suppression in host cells – NIH3T3 host cells, beta-gal luminescence, confirmation (AID 2044).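 Note: intracellular parasites grown in NIH/3T3 mouse fibroblasts as host cells; luminescent beta-galactosidase reporter signal from transgenic T. cruzi replicating inside host cells; inhibitors lower the luminescence signal.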 The class given is functional, cell-based.
The target of another assay is T5, Cytochrome P450 1A2 (Homo sapiens, UniProt P05177).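 Note: PubChem cytochrome P450 panel assay, CYP1A2 panel member.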
T5 sequence (P05177 whole entry): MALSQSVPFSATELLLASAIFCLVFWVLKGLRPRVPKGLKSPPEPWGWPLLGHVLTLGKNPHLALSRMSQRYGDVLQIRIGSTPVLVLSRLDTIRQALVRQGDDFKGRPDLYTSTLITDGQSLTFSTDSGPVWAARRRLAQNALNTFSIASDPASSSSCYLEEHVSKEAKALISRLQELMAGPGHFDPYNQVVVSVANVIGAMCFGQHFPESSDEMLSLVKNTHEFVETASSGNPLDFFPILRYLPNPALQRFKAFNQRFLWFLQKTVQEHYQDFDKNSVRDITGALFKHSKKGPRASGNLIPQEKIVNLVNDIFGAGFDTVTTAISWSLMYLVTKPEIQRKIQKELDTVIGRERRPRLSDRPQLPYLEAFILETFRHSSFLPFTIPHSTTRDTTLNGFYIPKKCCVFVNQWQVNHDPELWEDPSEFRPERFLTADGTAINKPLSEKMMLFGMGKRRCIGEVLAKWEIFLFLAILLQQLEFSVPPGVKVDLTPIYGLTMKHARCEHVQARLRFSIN

Assay [8] is described as follows: Luminescence Cell-Based Dose Retest to Confirm Inhibitors of Cancer Stem Cells. [Related pubchem assays (depositor defined):AID2717, AID2721]. To be noted: Homo sapiens. The class given is functional.

Each structure is given as a SMILES string. The source made the active and inactive calls. Bounds are passed on as bounds.

Chain of Cytochrome P450 2D6 (P10635 whole entry): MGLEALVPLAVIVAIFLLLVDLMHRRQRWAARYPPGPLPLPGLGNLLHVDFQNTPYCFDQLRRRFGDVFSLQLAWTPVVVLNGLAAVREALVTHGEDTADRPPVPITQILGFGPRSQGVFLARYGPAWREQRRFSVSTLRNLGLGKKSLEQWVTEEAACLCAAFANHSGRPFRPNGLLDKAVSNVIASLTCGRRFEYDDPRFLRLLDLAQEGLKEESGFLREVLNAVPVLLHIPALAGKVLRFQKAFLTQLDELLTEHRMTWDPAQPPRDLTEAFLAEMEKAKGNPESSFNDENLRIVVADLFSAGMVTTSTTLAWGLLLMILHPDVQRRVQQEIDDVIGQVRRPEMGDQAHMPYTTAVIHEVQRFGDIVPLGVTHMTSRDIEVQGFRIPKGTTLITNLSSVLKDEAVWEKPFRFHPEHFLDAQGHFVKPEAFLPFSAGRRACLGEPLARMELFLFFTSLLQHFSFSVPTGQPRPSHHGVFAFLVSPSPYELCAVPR
Chain of Cytochrome P450 2C9 (P11712 whole entry): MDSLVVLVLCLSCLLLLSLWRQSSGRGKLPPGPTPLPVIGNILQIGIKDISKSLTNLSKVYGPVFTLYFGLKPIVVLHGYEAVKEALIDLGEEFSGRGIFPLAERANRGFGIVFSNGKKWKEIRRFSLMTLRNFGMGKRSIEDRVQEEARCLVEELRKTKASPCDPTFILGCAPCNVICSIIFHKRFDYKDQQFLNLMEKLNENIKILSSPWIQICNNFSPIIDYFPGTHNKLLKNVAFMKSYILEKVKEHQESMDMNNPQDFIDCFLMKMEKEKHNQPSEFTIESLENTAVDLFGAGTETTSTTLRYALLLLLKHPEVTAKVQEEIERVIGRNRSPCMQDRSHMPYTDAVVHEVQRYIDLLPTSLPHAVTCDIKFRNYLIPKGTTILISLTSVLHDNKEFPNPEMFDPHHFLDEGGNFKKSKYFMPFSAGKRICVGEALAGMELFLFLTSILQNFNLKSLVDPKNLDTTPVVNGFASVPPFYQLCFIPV
Chain of Cytochrome P450 3A4 (P08684 whole entry): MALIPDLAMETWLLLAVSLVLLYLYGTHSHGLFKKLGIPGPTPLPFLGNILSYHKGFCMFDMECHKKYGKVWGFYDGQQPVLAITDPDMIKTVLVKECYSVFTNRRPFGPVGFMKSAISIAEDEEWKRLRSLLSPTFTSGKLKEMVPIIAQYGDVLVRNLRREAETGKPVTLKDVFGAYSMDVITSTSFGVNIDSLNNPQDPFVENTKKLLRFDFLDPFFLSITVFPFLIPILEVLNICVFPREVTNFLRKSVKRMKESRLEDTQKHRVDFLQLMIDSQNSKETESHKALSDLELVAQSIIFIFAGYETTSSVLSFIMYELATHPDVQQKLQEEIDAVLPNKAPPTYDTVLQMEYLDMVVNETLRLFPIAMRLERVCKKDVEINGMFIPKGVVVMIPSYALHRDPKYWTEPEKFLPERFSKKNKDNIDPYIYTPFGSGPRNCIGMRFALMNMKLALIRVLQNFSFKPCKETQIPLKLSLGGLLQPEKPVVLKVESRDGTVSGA

On to `COc1cccc(OCc2ccc(Cl)cc2)c1C#N`, for which, in assay [1], the EC50 was > 260 µM (inactive).

A word on the AC50: it is the midpoint of the concentration-response curve, whichever way the signal moves. For the compound `CC1=CC(C)(C)N=C(S)N1c1cccc(C)c1`, the EC50 in assay [1] is > 260 µM (inactive). Besides, the AC50 on Cytochrome P450 3A4 was 25.1 µM (inconclusive); at Cytochrome P450 2D6 it was 6.31 µM (inconclusive); at Cytochrome P450 2C9, 3.55 µM (inconclusive).

With `CCOC(=O)C1=NN(C(=O)c2ccccc2)C(O)(c2ccc(C)cc2)C1` (configuration not stated), the results for the EC50 in assay [1] and in assay [2] were > 260 µM (inactive) and 13.5 µM (active), respectively.

`CS(=O)(=O)Nc1cccc(C2=NN(C(=O)CCCC(=O)O)C(c3cccs3)C2)c1` (configuration not stated): the EC50 in [1] is > 260 µM (inactive).

Consider `O=C(OCc1csc(-c2ccccc2)n1)c1cccs1`, for which the EC50 in assay [1] is > 260 µM (inactive).

On to `CCOC(=O)C1=C(N)Oc2c(c(O)nc3ccccc23)C1c1ccccc1` (configuration not stated), for which the EC50 was 53.5 µM (active) in [3] and 94.3 µM (active) in [4].

On to `O=C1/C(=C\c2ccc(Br)o2)Cc2ccccc21`, for which the EC50 in [1] is 27.6 µM (active).

For the compound `COc1cccc(-n2nc(C#N)c(Cl)cc2=O)c1`, the AC50 in assay [5] was 2.49 µM (active). In addition, the EC50 in assay [1] is 10.7 µM (active); on Protein RecA, 4.38 µM (active).

For `FC(F)(F)c1nnc(-c2ccccc2)nc1Sc1ccccc1`, the values for the AC50 (in [5]; on Cytochrome P450 2C19) were 19.3 µM (active) and 0.00355 µM (inconclusive), respectively. Also, the EC50 was 4.22 µM (inconclusive) in assay [1], 18.7 µM (active) in [3], 17.3 µM (active) in [4] and 9.56 µM (active) at Protein RecA.

With `C=CCn1c(=O)c2ccccc2n2c(SCC(=O)Nc3sc(C)c(CC)c3C(=O)OCC)nnc12`, the EC50 in [1] is > 260 µM (inactive).

In the case of `Cc1ccc(-c2nc(NC(=O)c3ccc(S(=O)(=O)N(CCC#N)CCC#N)cc3)sc2-c2ccccc2)cc1`, the EC50 in assay [6] was > 60 µM (not active); in [7] it was 2.02 µM (active); in assay [3] it was 17 µM (active); in assay [4] it was 17.3 µM (active).

Take `O=P(Nc1ccccc1)(Nc1ccccc1)Oc1cccc(Cl)c1`: the EC50 in [3] was 134 µM (active); in assay [4], 239 µM (active). In addition, the AC50 at Cytochrome P450 1A2 and on Cytochrome P450 2D6 was 15.8 µM (inconclusive) in each case.

Take `Clc1ccc(CO/N=C/c2c(-c3ccccc3)nc3n2CCS3)c(Cl)c1`: the EC50 in [1] was > 260 µM (inactive). Besides, the AC50 in assay [8] was 2.22 µM (active).
